Measurements: patent US20190175744A1, “INSULIN-INCRETIN CONJUGATES” (Merck Sharp & Dohme Corp., priority 2016, published 2019)
Like-named read-outs stand apart in the source and are kept apart here.

Tests used:
human GCGR = target: T1, human GCGR (Homo sapiens, UniProt P47871); assay: cAMP activity assay, cells expressing human GCGR; format: cell-based; details: for GCGR/GLP1R ratio: Table 5, ratio of hGCGR EC50 to hGLP1R EC50;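 on all read-outs here: cAMP production read by luminescence after one hour of peptide exposure at room temperature, EC50 from logistic curve fit, native glucagon and GLP-1 as control peptides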
T1 construct: expressed in transfected cells; grown with Blasticidin and Hygromycin
Experimental: Activity of the incretin peptides or the conjugates at the Glucagon receptor (GCGR) and GLP-1 receptor (GLP1R) may be measured in a cAMP activity assay as follows.
Peptides are dissolved in 100% DMSO and serially diluted to generate 10 point titrations. The peptide solutions are then transferred into 384-well assay plates (150 nL/well). Assay ready frozen cells expressing human GLP1R or human GCGR are suspended in growth media consisting of DMEM medium (GIBCO), 10% FBS (GIBCO), 1×NEAA(GIBCO), 1×P/S (GIBCO), 10 μg/mL Blasticidin (GIBCO) and 200 μg/mL Hygromycin (GIBCO). […] The cell suspensions (15 μL) are then added to the assay plates containing the peptide solutions (30,000 cells/well for human GCGR; 10,000 cells/well for human GLP1R). The cells are incubated for one hour at room temperature in the dark.
Production of cAMP may be determined using HitHunterr cAMPXS kits (DiscoverX) following the manufacturer's protocol. The plates are incubated for overnight at room temperature in the dark. Luminescence may be measured using an EnVision Multilabel plate reader (Perkin Elmer). Native GLP-1 and Glucagon (Bachem) may be used as control peptides. EC50 values may be calculated using uses a 4 parameter logistic fit based on the Levenberg-Marquardt algorithm.

human GLP1R = human GLP1R (Homo sapiens, UniProt P43220); assay: cAMP activity assay, cells expressing human GLP1R; format: cell-based
[1] = Table 5, incretin peptides, cAMP, read-out: hGLP1R EC50

T1 sequence (P47871 26-477): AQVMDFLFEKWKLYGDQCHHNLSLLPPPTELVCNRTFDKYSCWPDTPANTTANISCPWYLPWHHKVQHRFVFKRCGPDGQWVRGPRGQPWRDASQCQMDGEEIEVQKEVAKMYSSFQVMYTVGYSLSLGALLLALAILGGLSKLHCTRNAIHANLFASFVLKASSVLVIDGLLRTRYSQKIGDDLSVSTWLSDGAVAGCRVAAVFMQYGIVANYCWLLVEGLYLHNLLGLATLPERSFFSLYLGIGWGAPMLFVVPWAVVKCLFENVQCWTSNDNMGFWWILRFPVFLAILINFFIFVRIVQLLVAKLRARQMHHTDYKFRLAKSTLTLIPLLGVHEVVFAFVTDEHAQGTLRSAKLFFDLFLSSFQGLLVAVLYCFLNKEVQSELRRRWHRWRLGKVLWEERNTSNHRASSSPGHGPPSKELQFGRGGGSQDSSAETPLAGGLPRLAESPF
Chain of human GLP1R (P43220 24-463): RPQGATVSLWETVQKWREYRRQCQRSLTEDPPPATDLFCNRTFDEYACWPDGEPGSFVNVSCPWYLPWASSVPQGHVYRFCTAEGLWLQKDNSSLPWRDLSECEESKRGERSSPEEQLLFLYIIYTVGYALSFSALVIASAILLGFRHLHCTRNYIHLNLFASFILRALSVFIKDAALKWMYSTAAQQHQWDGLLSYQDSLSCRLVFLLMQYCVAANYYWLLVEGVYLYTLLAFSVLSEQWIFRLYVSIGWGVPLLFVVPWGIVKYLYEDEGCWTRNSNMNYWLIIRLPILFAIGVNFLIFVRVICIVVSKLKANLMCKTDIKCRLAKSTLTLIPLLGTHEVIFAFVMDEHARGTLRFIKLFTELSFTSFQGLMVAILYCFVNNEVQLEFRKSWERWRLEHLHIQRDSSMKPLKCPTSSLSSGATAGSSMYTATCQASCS

| EC50 (human GLP1R; [1]) [nM] | EC50 (human GCGR; Table 5, incretin peptides, cAMP, read-out: hGCGR_EC50) [nM] | SMILES | EC50 (human GCGR) [nM] | GCGR/GLP1R ratio (human GCGR) | EC50 (human GLP1R) [nM] |
| --- | --- | --- | --- | --- | --- |
|  |  | CCCCCCCCCCCCCCCC(=O)N[C@@H](CCC(=O)N[C@@H](CCC(=O)NCCCC[C@H](NC(=O)[C@H](CC(=O)O)NC(=O)[C@H](CO)NC(=O)[C@@H](NC(=O)[C@H](Cc1ccccc1)NC(=O)[C@@H](NC(=O)CNC(=O)[C@H](CCC(N)=O)NC(=O)[C@@H](CO)NC(=O)[C@@H](N)Cc1c[nH]cn1)[C@@H](C)O)[C@@H](C)O)C(=O)N[C@@H](CO)C(=O)N[C@@H](CCCCN)C(=O)N[C@@H](Cc1ccc(O)cc1)C(=O)N[C@@H](CC(C)C)C(=O)N[C@@H](CC(=O)O)C(=O)N[C@@H](CCC(=O)O)C(=O)N[C@@H](CCCNC(=N)N)C(=O)N[C@@H](C)C(=O)N[C@@H](C)C(=O)N[C@@H](CCC(N)=O)C(=O)N[C@@H](CC(=O)O)C(=O)N[C@@H](Cc1ccccc1)C(=O)N[C@H](C(=O)N[C@@H](CCCCNC(=O)COCCOCCNC(=O)CCCCN=[N+]=[N-])C(=O)N[C@@H](Cc1c[nH]c2ccccc12)C(=O)N[C@@H](CC(C)C)C(=O)N[C@@H](CC(C)C)C(=O)N[C@@H](CC(=O)O)C(=O)N[C@H](C(N)=O)[C@@H](C)O)C(C)C)C(=O)O)C(=O)O [PEP14] | 0.05 | 0.8 | 0.07 |
| 0.06 |  | CCCCCCCCCCCCCCCC(=O)N[C@@H](CCC(=O)N[C@@H](CCC(=O)NCCCC[C@H](NC(=O)[C@H](CC(=O)O)NC(=O)[C@H](CO)NC(=O)[C@@H](NC(=O)[C@H](Cc1ccccc1)NC(=O)[C@@H](NC(=O)CNC(=O)[C@H](CCC(N)=O)NC(=O)[C@@H](CO)NC(=O)[C@@H](N)Cc1c[nH]cn1)[C@@H](C)O)[C@@H](C)O)C(=O)N[C@@H](CO)C(=O)N[C@@H](CCCCN)C(=O)N[C@@H](Cc1ccc(O)cc1)C(=O)N[C@@H](CC(C)C)C(=O)N[C@@H](CC(=O)O)C(=O)N[C@@H](CCC(=O)O)C(=O)N[C@@H](CCCNC(=N)N)C(=O)N[C@@H](C)C(=O)N[C@@H](C)C(=O)N[C@@H](CCCCNC(=O)COCCOCCNC(=O)CCCCN=[N+]=[N-])C(=O)N[C@@H](CC(=O)O)C(=O)N[C@@H](Cc1ccccc1)C(=O)N[C@H](C(=O)N[C@@H](CCC(N)=O)C(=O)N[C@@H](Cc1c[nH]c2ccccc12)C(=O)N[C@@H](CC(C)C)C(=O)N[C@@H](CC(C)C)C(=O)N[C@@H](CC(=O)O)C(=O)N[C@H](C(N)=O)[C@@H](C)O)C(C)C)C(=O)O)C(=O)O [PEP16] | 0.05 | 0.8 |  |
| 0.05 |  | CCCCCCCCCCCCCCCC(=O)N[C@@H](CCC(=O)N[C@@H](CCC(=O)NCCCC[C@H](NC(=O)[C@H](CC(=O)O)NC(=O)[C@H](CO)NC(=O)[C@@H](NC(=O)[C@H](Cc1ccccc1)NC(=O)[C@@H](NC(=O)CNC(=O)[C@H](CCC(N)=O)NC(=O)[C@@H](CO)NC(=O)[C@@H](N)Cc1c[nH]cn1)[C@@H](C)O)[C@@H](C)O)C(=O)N[C@@H](CO)C(=O)N[C@@H](CCCCN)C(=O)N[C@@H](Cc1ccc(O)cc1)C(=O)N[C@@H](CC(C)C)C(=O)N[C@@H](CC(=O)O)C(=O)N[C@@H](CCC(=O)O)C(=O)N[C@@H](CCCNC(=N)N)C(=O)N[C@@H](C)C(=O)N[C@@H](C)C(=O)N[C@@H](CCCCNC(=O)COCCOCCNC(=O)COCCOCCNC(=O)CCCCN=[N+]=[N-])C(=O)N[C@@H](CC(=O)O)C(=O)N[C@@H](Cc1ccccc1)C(=O)N[C@H](C(=O)N[C@@H](CCC(N)=O)C(=O)N[C@@H](Cc1c[nH]c2ccccc12)C(=O)N[C@@H](CC(C)C)C(=O)N[C@@H](CC(C)C)C(=O)N[C@@H](CC(=O)O)C(=O)N[C@H](C(N)=O)[C@@H](C)O)C(C)C)C(=O)O)C(=O)O [PEP17] | 0.06 | 1.2 |  |
| 0.03 | 0.21 | CC(C)C[C@H](NC(=O)[C@H](Cc1c[nH]c2ccccc12)NC(=O)[C@H](CCC(N)=O)NC(=O)[C@@H](NC(=O)[C@H](Cc1ccccc1)NC(=O)[C@H](CC(=O)O)NC(=O)[C@H](CCC(N)=O)NC(=O)[C@H](C)NC(=O)[C@H](C)NC(=O)[C@H](CCCNC(=N)N)NC(=O)C(C)(C)NC(=O)[C@H](CC(=O)O)NC(=O)[C@H](CC(C)C)NC(=O)[C@H](Cc1ccc(O)cc1)NC(=O)[C@H](CCCCN)NC(=O)[C@H](CO)NC(=O)[C@H](Cc1ccc(O)cc1)NC(=O)[C@H](CC(=O)O)NC(=O)[C@H](CO)NC(=O)[C@@H](NC(=O)[C@H](Cc1ccccc1)NC(=O)[C@@H](NC(=O)CNC(=O)[C@H](CCC(N)=O)NC(=O)C(C)(C)NC(=O)[C@@H](N)Cc1c[nH]cn1)[C@@H](C)O)[C@@H](C)O)C(C)C)C(=O)N[C@@H](CC(C)C)C(=O)N[C@@H](CC(=O)O)C(=O)N[C@H](C(=O)N[C@@H](CCCCN)C(=O)N[C@@H](CCCCN=[N+]=[N-])C(N)=O)[C@@H](C)O [PEP18] |  | 6.7 |  |
|  |  | CCCCCCCCCCCCCCCC(=O)N[C@@H](CCC(=O)N[C@@H](CCC(=O)NCCCC[C@H](NC(=O)[C@H](CC(=O)O)NC(=O)[C@H](CO)NC(=O)[C@@H](NC(=O)[C@H](Cc1ccccc1)NC(=O)[C@@H](NC(=O)CNC(=O)[C@H](CCC(N)=O)NC(=O)C(C)(C)NC(=O)[C@@H](N)Cc1c[nH]cn1)[C@@H](C)O)[C@@H](C)O)C(=O)N[C@@H](CO)C(=O)N[C@@H](CCCCN)C(=O)N[C@@H](Cc1ccc(O)cc1)C(=O)N[C@@H](CC(C)C)C(=O)N[C@@H](CC(=O)O)C(=O)NC(C)(C)C(=O)N[C@@H](CCCNC(=N)N)C(=O)N[C@@H](C)C(=O)N[C@@H](C)C(=O)N[C@@H](CCC(N)=O)C(=O)N[C@@H](CC(=O)O)C(=O)N[C@@H](Cc1ccccc1)C(=O)N[C@H](C(=O)N[C@@H](CCC(N)=O)C(=O)N[C@@H](Cc1c[nH]c2ccccc12)C(=O)N[C@@H](CC(C)C)C(=O)N[C@@H](CC(C)C)C(=O)N[C@@H](CC(=O)O)C(=O)N[C@H](C(=O)N[C@@H](CCCCN)C(=O)N[C@@H](CCCCN=[N+]=[N-])C(N)=O)[C@@H](C)O)C(C)C)C(=O)O)C(=O)O [PEP19] |  | 1.4 | 0.34 |
|  |  | CCCCCCCCCCCCCCCC(=O)N[C@@H](CCC(=O)N[C@@H](CCC(=O)NCCCC[C@H](NC(=O)[C@H](CC(=O)O)NC(=O)[C@H](CO)NC(=O)[C@@H](NC(=O)[C@H](Cc1ccccc1)NC(=O)[C@@H](NC(=O)CNC(=O)[C@H](CCC(N)=O)NC(=O)C(C)(C)NC(=O)[C@@H](N)Cc1c[nH]cn1)[C@@H](C)O)[C@@H](C)O)C(=O)N[C@@H](CO)C(=O)N[C@@H](CCCCN)C(=O)N[C@@H](Cc1ccc(O)cc1)C(=O)N[C@@H](CC(C)C)C(=O)N[C@@H](CC(=O)O)C(=O)NC(C)(C)C(=O)N[C@@H](CCCNC(=N)N)C(=O)N[C@@H](C)C(=O)N[C@@H](C)C(=O)N[C@@H](CCC(N)=O)C(=O)N[C@@H](CC(=O)O)C(=O)N[C@@H](Cc1ccccc1)C(=O)N[C@H](C(=O)N[C@@H](CCC(N)=O)C(=O)N[C@@H](Cc1c[nH]c2ccccc12)C(=O)N[C@@H](CC(C)C)C(=O)N[C@@H](CC(C)C)C(=O)N[C@@H](CC(=O)O)C(=O)N[C@H](C(=O)N[C@@H](CCCCN)C(=O)N[C@@H](CCCCNC(=O)COCCOCCNC(=O)CCCCN=[N+]=[N-])C(N)=O)[C@@H](C)O)C(C)C)C(=O)O)C(=O)O [PEP20] | 0.1 | 2.0 | 0.05 |
|  |  | CC(C)C[C@H](NC(=O)[C@H](Cc1ccc(O)cc1)NC(=O)[C@H](CCCCN)NC(=O)[C@H](CO)NC(=O)[C@H](Cc1ccc(O)cc1)NC(=O)[C@H](CC(=O)O)NC(=O)[C@H](CO)NC(=O)[C@@H](NC(=O)[C@H](Cc1ccccc1)NC(=O)[C@@H](NC(=O)CNC(=O)[C@H](CCC(N)=O)NC(=O)[C@@H](CO)NC(=O)[C@@H](N)Cc1c[nH]cn1)[C@@H](C)O)[C@@H](C)O)C(=O)N[C@@H](CC(=O)O)C(=O)N[C@@H](CCC(=O)O)C(=O)N[C@@H](CCCNC(=N)N)C(=O)N[C@@H](C)C(=O)N[C@@H](C)C(=O)N[C@@H](CCCCNC(=O)COCCOCCNC(=O)COCCOCCNC(=O)CC[C@H](NC(=O)CCCCCCCCCCCCCCCN=[N+]=[N-])C(=O)O)C(=O)N[C@@H](CC(=O)O)C(=O)N[C@@H](Cc1ccccc1)C(=O)N[C@H](C(=O)N[C@@H](CCC(N)=O)C(=O)N[C@@H](Cc1c[nH]c2ccccc12)C(=O)N[C@@H](CC(C)C)C(=O)N[C@@H](CC(C)C)C(=O)N[C@@H](CC(=O)O)C(=O)N[C@H](C(N)=O)[C@@H](C)O)C(C)C [PEP26] | 0.12 | 1.0 | 0.12 |
|  |  | CC(C)C[C@H](NC(=O)[C@H](Cc1ccc(O)cc1)NC(=O)[C@H](CCCCN)NC(=O)[C@H](CO)NC(=O)[C@H](Cc1ccc(O)cc1)NC(=O)[C@H](CC(=O)O)NC(=O)[C@H](CO)NC(=O)[C@@H](NC(=O)[C@H](Cc1ccccc1)NC(=O)[C@@H](NC(=O)CNC(=O)[C@H](CCC(N)=O)NC(=O)[C@@H](CO)NC(=O)[C@@H](N)Cc1c[nH]cn1)[C@@H](C)O)[C@@H](C)O)C(=O)N[C@@H](CC(=O)O)C(=O)N[C@@H](CCC(=O)O)C(=O)N[C@@H](CCCNC(=N)N)C(=O)N[C@@H](C)C(=O)N[C@@H](C)C(=O)N[C@@H](CCC(N)=O)C(=O)N[C@@H](CCCCNC(=O)COCCOCCNC(=O)COCCOCCNC(=O)CC[C@H](NC(=O)CCCCCCCCCCCCCCCN=[N+]=[N-])C(=O)O)C(=O)N[C@@H](Cc1ccccc1)C(=O)N[C@H](C(=O)N[C@@H](CCC(N)=O)C(=O)N[C@@H](Cc1c[nH]c2ccccc12)C(=O)N[C@@H](CC(C)C)C(=O)N[C@@H](CC(C)C)C(=O)N[C@@H](CC(=O)O)C(=O)N[C@H](C(N)=O)[C@@H](C)O)C(C)C [PEP27] | 0.39 | 6.5 | 0.06 |
|  |  | CC(C)C[C@H](NC(=O)[C@H](Cc1c[nH]c2ccccc12)NC(=O)[C@H](CCC(N)=O)NC(=O)[C@@H](NC(=O)[C@H](Cc1ccccc1)NC(=O)[C@H](CC(=O)O)NC(=O)[C@H](CCC(N)=O)NC(=O)[C@H](C)NC(=O)[C@H](C)NC(=O)[C@H](CCCNC(=N)N)NC(=O)C(C)(C)NC(=O)[C@H](CC(=O)O)NC(=O)[C@H](CC(C)C)NC(=O)[C@H](Cc1ccc(O)cc1)NC(=O)[C@H](CCCCN)NC(=O)[C@H](CO)NC(=O)[C@H](Cc1ccc(O)cc1)NC(=O)[C@H](CC(=O)O)NC(=O)[C@H](CO)NC(=O)[C@@H](NC(=O)[C@H](Cc1ccccc1)NC(=O)[C@@H](NC(=O)CNC(=O)[C@H](CCC(N)=O)NC(=O)C(C)(C)NC(=O)[C@@H](N)Cc1c[nH]cn1)[C@@H](C)O)[C@@H](C)O)C(C)C)C(=O)N[C@@H](CC(C)C)C(=O)N[C@@H](CC(=O)O)C(=O)N[C@H](C(=O)N[C@@H](CCCCN)C(=O)N[C@@H](CCCCNC(=O)COCCOCCNC(=O)COCCOCCNC(=O)CC[C@H](NC(=O)CCCCCCCCCCCCCCCN=[N+]=[N-])C(=O)O)C(N)=O)[C@@H](C)O [PEP28] | 0.17 | 1.1 | 0.16 |
